Test results published in PubChem BioAssay (NCI).
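GI50: concentration for 50% inhibition of growth. TGI is the concentration that stops growth completely.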

Experiments:
Test in all cases: NCI-60 cell line screen, 384-well format
SK-MEL-5 melanoma = test system: SK-MEL-5 melanoma
SF-539 CNS = test system: SF-539 CNS
A549 NSCLC = test system: A549 NSCLC
SW-620 colon = test system: SW-620 colon
PC-3 prostate = test system: PC-3 prostate
KM12 colon = test system: KM12 colon
UACC-62 melanoma = test system: UACC-62 melanoma
DU-145 prostate = test system: DU-145 prostate
786-0 renal = test system: 786-0 renal
NCI-H322M lung = test system: NCI-H322M lung
HCT-15 colon = test system: HCT-15 colon
ACHN renal = test system: ACHN renal
BT-549 breast = test system: BT-549 breast
NCI/ADR-RES ovarian = test system: NCI/ADR-RES ovarian
SF-268 CNS = test system: SF-268 CNS
RPMI-8226 leukemia = test system: RPMI-8226 leukemia
A498 renal = test system: A498 renal
OVCAR-5 ovarian = test system: OVCAR-5 ovarian
HS 578T breast = test system: HS 578T breast
LOX IMVI melanoma = test system: LOX IMVI melanoma
TK-10 renal = test system: TK-10 renal
HOP-62 NSCLC = test system: HOP-62 NSCLC
NCI-H23 lung = test system: NCI-H23 lung
SN12C renal = test system: SN12C renal
MDA-MB-435 melanoma = test system: MDA-MB-435 melanoma
SF-295 CNS = test system: SF-295 CNS
SK-MEL-28 melanoma = test system: SK-MEL-28 melanoma
MDA-MB-468 breast = test system: MDA-MB-468 breast
OVCAR-4 ovarian = test system: OVCAR-4 ovarian
CAKI-1 renal = test system: CAKI-1 renal
HOP-92 NSCLC = test system: HOP-92 NSCLC
NCI-H460 NSCLC = test system: NCI-H460 NSCLC
M14 melanoma = test system: M14 melanoma
MOLT-4 leukemia = test system: MOLT-4 leukemia
IGROV1 ovarian = test system: IGROV1 ovarian
SK-OV-3 ovarian = test system: SK-OV-3 ovarian
HT29 colon = test system: HT29 colon
T-47D breast = test system: T-47D breast
MDA-MB-231 breast = test system: MDA-MB-231 breast
NCI-H226 lung = test system: NCI-H226 lung
MCF7 breast = test system: MCF7 breast
OVCAR-3 ovarian = test system: OVCAR-3 ovarian
HCT-116 colon = test system: HCT-116 colon
SR leukemia = test system: SR leukemia
SNB-19 CNS = test system: SNB-19 CNS
NCI-H522 lung = test system: NCI-H522 lung
MALME-3M melanoma = test system: MALME-3M melanoma
U251 glioblastoma = test system: U251 glioblastoma
OVCAR-8 ovarian = test system: OVCAR-8 ovarian
COLO 205 colon = test system: COLO 205 colon
HL-60(TB) leukemia = test system: HL-60(TB) leukemia
HCC-2998 colon = test system: HCC-2998 colon
UACC-257 melanoma = test system: UACC-257 melanoma

## CO[C@H]1C[C@@H]2CC[C@@H](C)[C@@](O)(O2)C(=O)C(=O)N2CCCC[C@H]2C(=O)O[C@H]([C@H](C)C[C@@H]2CC[C@@H](OC(=O)C(C)(CO)CO)[C@H](OC)C2)CC(=O)[C@H](C)/C=C(\C)[C@@H](O)[C@@H](OC)C(=O)[C@H](C)C[C@H](C)/C=C/C=C/C=C/1C
SK-MEL-5 melanoma
  GI50: 1.63 µM
  TGI: 11.4 µM
SF-539 CNS
  GI50: 1.12 µM
  TGI: 15.1 µM
A549 NSCLC
  TGI: 15.4 µM
SW-620 colon
  GI50: 11.2 µM
  TGI: 23.9 µM
PC-3 prostate
  GI50: 1.16 µM
  TGI: 11.8 µM
KM12 colon
  GI50: 2.22 µM
  TGI: 17.4 µM
UACC-62 melanoma
  GI50: 1.79 µM
  TGI: 15 µM
DU-145 prostate
  GI50: 1.05 µM
  TGI: 15.7 µM
786-0 renal
  GI50: 0.148 µM
  TGI: 14.2 µM
NCI-H322M lung
  GI50: 1.32 µM
  TGI: 12.7 µM
HCT-15 colon
  GI50: 0.473 µM
  TGI: 15 µM
ACHN renal
  GI50: 2.31 µM
  TGI: 15.1 µM
BT-549 breast
  TGI: 1.7 µM
NCI/ADR-RES ovarian
  GI50: 4.89 µM
  TGI: 22.5 µM
SF-268 CNS
  GI50: 2.81 µM
  TGI: 14.1 µM
RPMI-8226 leukemia
  TGI: 1.06 µM
A498 renal
  TGI: 14.5 µM
OVCAR-5 ovarian
  GI50: 12.5 µM
  TGI: 25.4 µM
HS 578T breast
  TGI: 1.74 µM
LOX IMVI melanoma
  GI50: 1.19 µM
  TGI: 11.3 µM
TK-10 renal
  GI50: 12 µM
  TGI: 26.3 µM
HOP-62 NSCLC
  GI50: 0.233 µM
  TGI: 13.3 µM
NCI-H23 lung
  GI50: 1.93 µM
  TGI: 15.7 µM
SN12C renal
  GI50: 4.56 µM
  TGI: 19.2 µM
MDA-MB-435 melanoma
  GI50: 11.4 µM
  TGI: 23.6 µM
SF-295 CNS
  TGI: 3.62 µM
SK-MEL-28 melanoma
  GI50: 3.04 µM
  TGI: 14.7 µM
MDA-MB-468 breast
  TGI: 2.53 µM
OVCAR-4 ovarian
  GI50: 1.53 µM
  TGI: 12.6 µM
CAKI-1 renal
  GI50: 1.26 µM
  TGI: 15.1 µM
HOP-92 NSCLC
  GI50: 2.75 µM
  TGI: 8.39 µM
NCI-H460 NSCLC
  GI50: 0.404 µM
  TGI: 15.5 µM
M14 melanoma
  GI50: 5.55 µM
  TGI: 19.8 µM
MOLT-4 leukemia
  TGI: 1.54 µM
IGROV1 ovarian
  TGI: 5.04 µM
SK-OV-3 ovarian
  GI50: 11.6 µM
  TGI: 27.5 µM
HT29 colon
  GI50: 2.33 µM
  TGI: 12.8 µM
T-47D breast
  TGI: 5.11 µM
MDA-MB-231 breast
  GI50: 1.82 µM
  TGI: 7.89 µM
NCI-H226 lung
  GI50: 1.11 µM
  TGI: 4.08 µM
MCF7 breast
  TGI: 10.1 µM
OVCAR-3 ovarian
  GI50: 0.867 µM
  TGI: 13.9 µM
HCT-116 colon
  GI50: 3.23 µM
  TGI: 15.5 µM
SR leukemia
  TGI: 0.441 µM
SNB-19 CNS
  GI50: 5.96 µM
  TGI: 20.2 µM
NCI-H522 lung
  GI50: 2.23 µM
  TGI: 11.5 µM
MALME-3M melanoma
  TGI: 3.29 µM
U251 glioblastoma
  GI50: 2.22 µM
  TGI: 14 µM
OVCAR-8 ovarian
  GI50: 0.791 µM
  TGI: 15.9 µM
COLO 205 colon
  GI50: 11.2 µM
  TGI: 23.3 µM
HL-60(TB) leukemia
  GI50: 1.63 µM
  TGI: 3 µM
HCC-2998 colon
  GI50: 1.2 µM
  TGI: 11.6 µM
UACC-257 melanoma
  GI50: 8.32 µM
  TGI: 20.3 µM
